The source made the active and inactive calls. Cut-off read from the data, not from the text of the source, for most assays here: actives have a measured EC50 and inactives only a lower limit.
Experiments:
[1] = NIH-3T3 fibroblast cytotoxicity, dose response, cytotoxicity control, cell-based, fluorescence, Alamar Blue, secondary assay (AID 2327); format: functional;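 note: NIH-3T3 mouse fibroblasts cultured with fluconazole at 8 µg/mL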
Cytochrome P450 3A4 = Cytochrome P450 3A4 (Homo sapiens, UniProt P08684);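 note: CYP3A4 tested as one member of a cytochrome P450 panel screen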
Cytochrome P450 3A4, sequence (P08684 whole entry): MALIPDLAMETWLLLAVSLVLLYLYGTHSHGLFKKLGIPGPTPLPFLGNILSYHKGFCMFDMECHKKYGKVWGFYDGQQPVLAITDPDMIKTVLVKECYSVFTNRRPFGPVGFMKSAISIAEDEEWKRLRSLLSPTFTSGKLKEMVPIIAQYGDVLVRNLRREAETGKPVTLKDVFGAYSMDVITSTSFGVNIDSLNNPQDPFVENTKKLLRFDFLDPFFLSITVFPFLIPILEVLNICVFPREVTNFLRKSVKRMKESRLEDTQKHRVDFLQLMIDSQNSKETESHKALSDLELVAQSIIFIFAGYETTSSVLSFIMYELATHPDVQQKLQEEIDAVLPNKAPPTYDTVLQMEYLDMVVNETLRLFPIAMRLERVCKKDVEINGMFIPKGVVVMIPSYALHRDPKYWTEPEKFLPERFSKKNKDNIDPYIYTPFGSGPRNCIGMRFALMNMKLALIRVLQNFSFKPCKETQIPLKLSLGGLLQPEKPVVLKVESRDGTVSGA

Cytochrome P450 2D6 = Cytochrome P450 2D6 (Homo sapiens, UniProt P10635);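 note: CYP2D6 member of a cytochrome P450 panel assay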
Cytochrome P450 2D6, sequence (P10635 whole entry): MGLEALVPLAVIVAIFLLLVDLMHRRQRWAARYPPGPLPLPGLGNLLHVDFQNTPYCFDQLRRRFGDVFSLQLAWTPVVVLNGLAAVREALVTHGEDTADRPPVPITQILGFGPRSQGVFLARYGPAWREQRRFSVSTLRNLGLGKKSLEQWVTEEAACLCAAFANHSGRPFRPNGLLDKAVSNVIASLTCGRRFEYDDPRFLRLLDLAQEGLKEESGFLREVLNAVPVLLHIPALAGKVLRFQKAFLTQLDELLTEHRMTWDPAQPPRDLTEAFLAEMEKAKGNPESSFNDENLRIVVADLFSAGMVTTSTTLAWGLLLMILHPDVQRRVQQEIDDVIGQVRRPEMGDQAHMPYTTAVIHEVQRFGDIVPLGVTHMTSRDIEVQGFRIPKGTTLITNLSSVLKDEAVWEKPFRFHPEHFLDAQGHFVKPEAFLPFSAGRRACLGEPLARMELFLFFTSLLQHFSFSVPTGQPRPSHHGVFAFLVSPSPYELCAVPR

[2] = fluconazole-exposed Candida albicans growth modulators – fluorescence, retest, confirmation (AID 2467); format: functional, cell-based
Cytochrome P450 1A2 = biological target: T1, Cytochrome P450 1A2 (Homo sapiens, UniProt P05177);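 note: PubChem cytochrome P450 panel assay, CYP1A2 panel member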
T1 sequence (P05177 whole entry): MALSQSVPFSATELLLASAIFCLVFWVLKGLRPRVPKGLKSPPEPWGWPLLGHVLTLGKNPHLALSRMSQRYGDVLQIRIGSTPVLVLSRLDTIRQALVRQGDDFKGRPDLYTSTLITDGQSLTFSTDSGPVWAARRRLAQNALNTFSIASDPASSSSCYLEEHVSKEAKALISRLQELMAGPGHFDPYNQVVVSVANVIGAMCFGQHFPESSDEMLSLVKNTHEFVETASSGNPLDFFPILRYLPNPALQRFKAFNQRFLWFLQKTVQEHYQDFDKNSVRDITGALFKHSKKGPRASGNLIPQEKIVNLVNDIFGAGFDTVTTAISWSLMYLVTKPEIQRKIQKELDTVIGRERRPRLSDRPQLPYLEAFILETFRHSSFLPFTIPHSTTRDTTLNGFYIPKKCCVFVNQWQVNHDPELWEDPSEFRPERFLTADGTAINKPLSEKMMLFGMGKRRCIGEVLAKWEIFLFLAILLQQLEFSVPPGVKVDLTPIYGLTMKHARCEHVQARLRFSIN

[3] = viability of uninfected HEp-2 cells – cell-based, HTS, cytotoxicity control for RSV inhibitor project, dose response (AID 2410); format: functional; details: human respiratory syncytial virus
[4] = Luminescence Cell-Based Dose Response HTS to Identify Activators of Luciferase Translation or Activity in H4 […] Cells. [Related pubchem assays: 1829 (Project Summary), 1814 (Primary HTS)]; format: functional
H4 = assay: Luminescence Cell-Based Dose Response HTS to Identify Activators of 5'UTR Stem-Loop Driven Prion Protein mRNA Translation in H4 Neuroglioblastoma Cells. [Related pubchem assays: 1829 (Project Summary), 1814 (Primary HTS)]; format: functional; details: Homo sapiens
[5] = biological target: T2, Corticotropin-releasing factor receptor 2/Corticotropin-releasing factor-binding protein (Homo sapiens, UniProt P24387+Q13324); assay: Dose Response confirmation of uHTS hits for small molecule antagonists of the CRF-binding protein and CRF-R2 receptor complex.; format: functional; details: read-out: IC50_Mean
T2 sequence (Q13324 whole entry): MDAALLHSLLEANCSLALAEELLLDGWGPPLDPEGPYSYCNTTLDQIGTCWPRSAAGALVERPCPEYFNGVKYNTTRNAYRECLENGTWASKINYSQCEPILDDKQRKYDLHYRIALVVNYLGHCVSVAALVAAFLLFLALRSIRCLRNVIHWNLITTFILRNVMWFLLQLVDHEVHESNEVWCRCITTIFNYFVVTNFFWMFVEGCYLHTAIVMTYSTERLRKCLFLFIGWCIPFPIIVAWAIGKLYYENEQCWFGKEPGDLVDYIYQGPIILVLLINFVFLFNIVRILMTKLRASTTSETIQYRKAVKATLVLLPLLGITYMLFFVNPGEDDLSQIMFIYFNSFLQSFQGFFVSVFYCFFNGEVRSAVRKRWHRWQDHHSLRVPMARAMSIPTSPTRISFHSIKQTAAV
T2 sequence (P24387 whole entry): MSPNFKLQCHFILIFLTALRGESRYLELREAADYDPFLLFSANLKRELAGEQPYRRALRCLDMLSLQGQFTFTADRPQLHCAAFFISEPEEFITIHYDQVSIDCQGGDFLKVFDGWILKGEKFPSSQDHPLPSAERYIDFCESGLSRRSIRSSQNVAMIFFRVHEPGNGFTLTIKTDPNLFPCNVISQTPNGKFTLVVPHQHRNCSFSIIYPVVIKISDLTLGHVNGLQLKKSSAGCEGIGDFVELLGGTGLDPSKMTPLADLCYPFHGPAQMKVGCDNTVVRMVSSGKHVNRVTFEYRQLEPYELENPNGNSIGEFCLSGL

[6] = biological target: T2, Corticotropin-releasing factor receptor 2/Corticotropin-releasing factor-binding protein; assay: activators of CRF receptor 2 with binding protein – uHTS hits, confirmation (AID 602473); format: functional; details: read-out: EC50_Mean
INS1 = assay: INS-1E survival protection against cytokine death – cell-based, luminescence, retest, dose response (AID 449756); format: functional; details: Rattus norvegicus;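 note: cell death triggered by IL-1 beta plus TNF-alpha plus IFN-gamma mixture; protective hits raise ATP signal compared with cytokine alone wells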
[7] = system: Streptococcus sp. 'group A'; assay: Streptococcus pyogenes SK(-)GAS viability under kanamycin – luminescence, BacTiterGlo, confirmation, counter-screen for streptokinase expression inhibitor project, dose response (AID 1900); format: functional, organism-based
Streptococcus = assay: GAS UMAA2166 growth inhibition – luminescence, BacTiterGlo, counter-screen for streptokinase expression inhibitor project, dose response (AID 1915); format: functional, organism-based;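 note: potency for reduction of bacterial viability or growth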
[8] = NIH3T3 cell viability loss – ATP luminescence, mouse fibroblasts, counter-screen, dose response (AID 2010); format: functional, cell-based;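 note: cells exposed to compound for about 90 hours before reading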
[9] = Trypanosoma cruzi growth suppression in host cells – NIH3T3 host cells, beta-gal luminescence, confirmation (AID 2044); format: functional, cell-based;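 note: intracellular parasites grown in NIH/3T3 mouse fibroblasts as host cells; luminescent beta-galactosidase reporter signal from transgenic T. cruzi replicating inside host cells; inhibitors lower the luminescence signal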
[10] = biological target: T3, Rac GTPase-activating protein 1 (Homo sapiens, UniProt Q9H0H5); assay: blockers of MgcRacGAP-driven Rac1 GTP hydrolysis – biochemical, ADP Hunter fluorescence, primary and confirmatory, confirmation (AID 624330); format: functional
T3 sequence (Q9H0H5 whole entry): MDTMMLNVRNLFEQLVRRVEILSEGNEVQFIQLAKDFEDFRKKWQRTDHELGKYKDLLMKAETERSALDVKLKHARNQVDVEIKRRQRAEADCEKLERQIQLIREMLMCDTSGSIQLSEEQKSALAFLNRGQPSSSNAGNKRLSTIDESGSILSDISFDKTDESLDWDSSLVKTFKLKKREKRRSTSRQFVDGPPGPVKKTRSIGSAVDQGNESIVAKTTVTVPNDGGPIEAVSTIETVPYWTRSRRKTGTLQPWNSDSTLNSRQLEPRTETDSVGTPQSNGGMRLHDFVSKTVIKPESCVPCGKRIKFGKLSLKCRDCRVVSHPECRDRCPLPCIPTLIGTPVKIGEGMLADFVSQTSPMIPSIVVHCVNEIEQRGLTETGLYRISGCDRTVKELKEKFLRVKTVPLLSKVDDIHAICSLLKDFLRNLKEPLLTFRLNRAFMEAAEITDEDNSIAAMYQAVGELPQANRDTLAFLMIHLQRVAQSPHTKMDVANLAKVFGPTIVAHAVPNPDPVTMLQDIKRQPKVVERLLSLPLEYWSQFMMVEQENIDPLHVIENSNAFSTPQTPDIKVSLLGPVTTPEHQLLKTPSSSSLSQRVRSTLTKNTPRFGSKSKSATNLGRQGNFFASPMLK

| SMILES | EC50 [1] | EC50 [2] | IC50 [5] | EC50 [6] | further results |
| --- | --- | --- | --- | --- | --- |
| O=Nc1c(O)n(Cc2cccc(Cl)c2)c2ccccc12 | > 150 µM (inactive) | 2.99 µM (active) |  |  | AC50 (Cytochrome P450 3A4): 39.8 µM (inconclusive); AC50 (Cytochrome P450 2D6): 22.4 µM (inconclusive); AC50 (Cytochrome P450 1A2): 25.1 µM (inconclusive); CC50 [3]: 11.7 µM (active) |
| O=C(Cc1ccc(O)cc1)N/N=C/c1cccnc1 | > 160 µM (inactive) | > 38 µM (not active) |  |  |  |
| O=S(=O)(c1ccc(Cl)s1)N1CCCc2cccc(O)c21 | 21.4 µM (active) | > 38 µM (not active) |  |  | EC50 [4]: 6.05 µM (active); EC50 (H4): 45.3 µM (active) |
| CCOc1ccccc1-n1c(C)nc2cc(C(=O)O)ccc21 |  |  | > 47.1 µM (inactive) | > 53 µM (inactive) |  |
| COc1ccccc1N1CC(C)(C)C(=O)N(C(=O)c2ccc(Cl)cc2)C1=S |  |  |  |  | AC50 (INS1): > 260 µM (inactive) |
| Nc1c2c(nc3sc4c(c13)CCCCC4)CCCCC2 | > 160 µM (inconclusive) | 3.83 µM (active) |  |  |  |
| CNS(=O)(=O)c1cccc(C(=O)NCC(c2ccco2)N(C)C)c1 (stereo unspecified) |  |  | > 47.1 µM (inactive) | > 53 µM (inactive) |  |
| CCc1ccc2[nH]c(C(=O)Nc3ccc4c(c3)OCO4)cc2c1 |  |  | > 47.1 µM (inactive) | > 53 µM (inactive) |  |
| O=C(NCC1CCCO1)C1CCCN1C(=O)NC1CCCCC1 (stereo unspecified) |  |  | > 47.1 µM (inactive) | > 53 µM (inactive) |  |
| COc1ccc(CCC(=O)N2CC(C)OC(C)C2)cc1 (stereo unspecified) | > 150 µM (inactive) | > 38 µM (not active) |  |  |  |
| O=[N+]([O-])c1ccc(N2CCOCC2)cc1NCc1ccccc1 |  |  | > 47.1 µM (inactive) | > 53 µM (inactive) |  |
| O=C(COc1ccc(Cl)cc1Cl)NNC(=S)NC(=O)c1ccco1 |  |  |  |  | EC50 [7]: 309 nM (active); EC50 (Streptococcus): 1.57 µM (active) |
| CC(=O)Cc1nsc(Nc2ccc(Cl)cc2)n1 | > 160 µM (inactive) | > 38 µM (not active) |  |  |  |
| CCc1cccc(NC(=S)N(CCCN2CCOCC2)C(C)c2cc3cccc(OC)c3o2)c1 (stereo unspecified) |  |  | > 47.1 µM (inactive) | > 53 µM (inactive) |  |
| COc1ccc(C(=O)N(c2ccccc2)C2C=CS(=O)(=O)C2)cc1 (stereo unspecified) |  |  | > 47.1 µM (inactive) | > 53 µM (inactive) |  |
| O=C(NCCS(=O)(=O)c1ccc(Br)cc1)c1ccccc1Cl |  |  | > 47.1 µM (inactive) | > 53 µM (inactive) |  |
| COc1ccc(C(=O)NC(=S)NNC(=O)c2ccccc2O)cc1 |  |  |  | > 53 µM (inactive) | EC50 [7]: 2700 nM (active); EC50 (Streptococcus): 8.79 µM (active) |
| Cc1ccc(-n2nc(C)c(Sc3ccccc3[N+](=O)[O-])c2N)cc1 |  |  | > 47.1 µM (inactive) | > 53 µM (inactive) |  |
| COc1cc(C(=O)NC2CC(C)(C)Cc3c2cnn3-c2ccccc2)cc(OC)c1OC (stereo unspecified) |  |  | > 47.1 µM (inactive) | > 53 µM (inactive) |  |
| CCN(c1ccccc1)S(=O)(=O)c1ccc(C(=O)Nc2nnc(C3CC3)o2)cc1 | > 160 µM (inactive) | 2.19 µM (active) |  |  | EC50 [8]: 3.71 µM (active); EC50 [9]: 2.16 µM (active) |
| COc1ccc2c(c1)c(/C=C/c1cc[n+](C)cc1)cn2C | > 160 µM (inactive) | 2.23 µM (active) |  |  |  |
| Cc1cc(C)nc(NS(=O)(=O)c2ccc(NC(=O)COc3ccccc3)cc2)n1 | > 150 µM (inactive) | > 38 µM (not active) |  |  |  |
| O=C1NCCCCC1NS(=O)(=O)c1cccc2ccccc12 (stereo unspecified) |  |  | > 47.1 µM (inactive) | > 53 µM (inactive) |  |
| Cc1ccc(/C=N/Nc2ccnc3cc(Cl)ccc23)c(C)c1 |  |  |  |  | EC50 [8]: > 60 µM (not active); EC50 [9]: 0.672 µM (active); AC50 (INS1): 6.15 µM (active) |
| Sc1nnc(-c2cccs2)n1/N=C/c1cccs1 | > 150 µM (inactive) | 1.93 µM (active) |  |  | IC50 [10]: 126 µM (active) |
| O=C1C(C2=NC(c3ccccn3)C3C(=O)N(c4ccc(OC(F)(F)F)cc4)C(=O)C23)=C(O)c2ccccc21 (stereo unspecified) |  |  |  |  | AC50 (INS1): 5.71 µM (active) |
